Source: patent publication EP3907227A1, “TRILOBINE DERIVATIVES AND THEIR USE THEREOF IN THE TREATMENT OF MALARIA” (Institut Pasteur, priority 2020, dated 2021)
Read-outs that look alike come from different tables or passages of the source.

Key:
[1] = system: P. berghei ANKA strain GFP-expressing parasites; experiment: In vivo activity, Peters 4-day suppressive test; details: C57BL/6 mice, 10mg/kg i.p. daily for four days
Protocol: In vivo activity was determined as previously described (Malmquist et al. Antimicrob. Agents Chemother. 2015, 59 (2), 950-959) following the Peters 4-day suppressive test (Peters, Ann. Trop. Med. Parasitol. 1975, 69 (2), 155-171), with slight modifications. C57BL/6 mice were infected intraperitoneally (i.p.) with 10^5 P. berghei ANKA strain GFP-expressing parasites (Ishino et al. Cell. Mol. Microbiol. 2006, 59 (4), 1175-1184). Two hours post-infection, mice were treated i.p. with a daily regimen of 10mg/kg of compound 84, or 25mg/kg of chloroquine, or the equivalent vehicle control (distillated water) for four days. Parasitemia was quantified from blood samples collected every day by flow cytometry of 50,000 RBCs and confirmed by Giemsa-stained blood smears.

Parasites = experiment: Parasite reduction rate (time needed to kill the parasites); type: cell-based; details: survival curves, duration of treatment versus log viable parasites, Figure 3
Protocol: Parasites are incubated (see for example Sanz et al. PLoS ONE 7, e30949 (2012)) with a compound of the invention (or a reference) for different time-windows, washed, and diluted serially in 96-well plates in fresh red blood cells. Parasites are kept in culture for 3 to 4 weeks, when growth is assessed to evaluate the number of parasites that survive-correlated to the number of wells where growth is found. Survival curves are obtained by plotting the duration of treatment versus the log of the number of viable parasites (figure 3).

Strain 5248 = experiment: Inhibition of proliferation of multi-resistant field isolates, asynchronous asexual stages, SYBR-green assay; type: cell-based, P. falciparum; details: Plasmodium falciparum; 72h; Cambodian isolate resistant to Chloroquine, Pyrimethamine, Mefloquine and Artemisinin; mean of three replicates; read-out: IC50 nM Strain 5248 mean*
Protocol: (§1) Compounds 63 and 84 were evaluated regarding the inhibition of the proliferation of multi-resistant field isolates adapted to culture. A panel of four Cambodian strains bearing different molecular markers of resistance were selected: 3D7: Laboratory strain, drug-sensitive, 5150: Cambodian isolate resistant to Chloroquine and Pyrimethamine, 6591: Cambodian isolate resistant to Chloroquine, Pyrimethamine, 5248: Cambodian isolate resistant to Chloroquine, Pyrimethamine, Mefloquine and Artemisinin, 6320: Cambodian isolate resistant to Chloroquine, Pyrimethamine, Piperaquine and Artemisinin.
(§2) IC50 were obtained against asynchronous asexual stages using SYBR-green assay after 72h of incubation with a serial dilution of the compounds. Data represents the mean and SD of 3 independent experiments ran in triplicates. Table 2 illustrates mean IC50 values and their standard deviation in nanomolar.

Strain 6320 = experiment: as above; type: cell-based, P. falciparum; details: Plasmodium falciparum; 72h; Cambodian isolate resistant to Chloroquine, Pyrimethamine, Piperaquine and Artemisinin; mean of three replicates; read-out: IC50 nM Strain 6320 mean*
Protocol: as §1, §2

Strain 6591 = experiment: as above; type: cell-based, P. falciparum; details: Plasmodium falciparum; 72h; Cambodian isolate resistant to Chloroquine, Pyrimethamine; mean of three replicates; read-out: IC50 nM Strain 6591 mean*
Protocol: as §1, §2

Strain 5150 = experiment: as above; type: cell-based, P. falciparum; details: Plasmodium falciparum; 72h; Cambodian isolate resistant to Chloroquine and Pyrimethamine; mean of three replicates; read-out: IC50 nM Strain 5150 mean*
Protocol: as §1, §2

Lab. Strain 3D7 = experiment: Inhibition of proliferation, asynchronous asexual stages, SYBR-green assay, laboratory strain; type: cell-based, P. falciparum; details: Plasmodium falciparum, 3D7; 72h; laboratory strain, drug-sensitive; mean of three replicates; read-out: IC50 nM Lab. Strain 3D7 mean*
Protocol: as §1, §2

[2] = system: artemisinin-resistant parasites (strains 5150, 6591, 5248 and 6320); experiment: Ring-stage Survival Assay (RSA); type: cell-based, P. falciparum; details: 0-3h rings
Protocol: Since compounds of the invention are active on early ring stage as shown by the experiments on the cell cycle, their ability to kill artemisinin-resistant parasites in the ring-stage survival assay was tested (strains 5150, 6591, 5248 and 6320, Figure 2).
0-3h synchronized ring-stage parasites were exposed to a treatment of 6h with either DMSO, 700nM dihydroartemisinin (DHA), three times the IC50 value of the compound to test or 700nM DHA in combination with three times the IC50 value of the compound to test. Parasitemia was assessed at 72 hours post-synchronization using giemsa-stained thin blood smears. Percentage of survival was calculated in comparison to a DMSO-treated control. The data were obtained in three independent experiments.

asexual NF54 parasites = experiment: Stage-specificity during the asexual cell cycle (6h treatment windows, Giemsa smears); type: cell-based, P. falciparum
Protocol: To assess stage specificity of compounds of the invention, asexual NF54 parasites were tightly synchronized (0 to 3h post-invasion) using gelatin flotation and 5% D-sorbitol-treatment 3h later. […] Following the 6h-treatment, the corresponding cells were pelleted, washed with 10ml RPMI, and put back into culture in 500uL of complete media in a new plate. Parasitemia was assessed at 72 hours post-synchronization using giemsa-stained thin blood smears. Percentage of survival was calculated in comparison to a DMSO-treated control. The data were obtained in three independent experiments.

[3] = system: P. falciparum NF54 (drug-sensitive line); experiment: Inhibition of proliferation of asynchronous asexual cultures (SYBR Green I based assay, 72h); type: cell-based; details: for IC50: SYBR Green I, read-out: Malaria CI50
Protocol: Compounds were provided at a concentration of 10 mM in DMSO.
P. falciparum parasite are cultured using standard protocol (Trager and Jensen, Science 1976, 193(4254), 673-675). Briefly, parasites are cultured at 4% hematocrit (O+ human blood, Etablissement Français du Sang, France) in RPMI1640 complemented with 0.1% Albumax I, HEPES buffer, hypoxanthine, and gentamycin. They are incubated at 37°C under an atmosphere of 5% CO2 and 5% O2.
Compounds of the invention were assayed for a first screen at 5µM in duplicate against asynchronous asexual cultures of P. falciparum NF54 (drug-sensitive line) containing mostly rings (2% hematocrit. 0.5% starting parasitemia). Plates were incubated for 72h at 37°C under a reduced oxygen atmosphere. Parasite growth was assessed using the SYBR Green I based assay.
IC50 were determined using Graphpad Prism 6 software. Dihydroartemisinin (starting concentration 50nM) and DMSO were used as positive and negative controls.

COc1cc2c3c4c1Oc1cc5c(cc1O4)C(Cc1ccc(OCCCN(C)C)c(c1)Oc1ccc(cc1)CC3N(C)CC2)N(C)CC5 (stereo not drawn) [Compound 84]
Severe malaria symptoms [1]: do not develop severe malaria symptoms
Survival after inoculation [1]: 16 days
Speed of action (parasite reduction rate) (Parasites): act as fast as dihydroartemisinin (DHA)
IC50 (Strain 5248): 346 nM
IC50 (Strain 6320): 183 nM
IC50 (Strain 6591): 167 nM
IC50 (Strain 5150): 251 nM
IC50 (Lab. Strain 3D7): 136 nM
Killing of resistant rings (RSA), compound alone ([2]; 6h treatment with three times the IC50 value, Figure 2): kills resistant rings using three times the IC50 value in a similar manner whichever the strain considered
Killing of parasites (RSA), in combination with DHA ([2]; 6h treatment, three times the IC50 value plus 700nM DHA): able to kill the parasites of all the tested strains in combination with 700nM dihydroartemisinin (DHA)
Stage-specificity (survival after 6h treatment windows across the 48h cycle) (asexual NF54 parasites; synchronized NF54, 6h treatment, parasitemia at 72 hours post-synchronization, Figure 1): active throughout the 48h cycle with an increased efficiency between 12 and 42h post-invasion
Concentration from which the compound is active (stage-specificity assay) (asexual NF54 parasites; tested at one, two and three times the IC50 value): active starting from the concentration corresponding to 3 times the IC50 value
IC50 ([3]; NF54, 72h): 137 nM
IC50 ([3]; Plasmodium falciparum, NF54, 72 h): 130 ± 35 nM
activity at 5 µM ([3]; Plasmodium falciparum, first screen at 5µM in duplicate, 72h, NF54, read-out: % survival @5uM): 14.9%
